Reference: patent publication US20090291953A1, “PHAR[…] OF REBOXETINE” (Pfizer Inc, priority 2002, published 2009)

What was measured:
Assay type in all cases: physicochemical
[1] = Hygroscopicity test by Dynamic Moisture Sorption Gravimetry (DVS 1000); conditions: for Effects of moisture update: reversibility / retention of water uptake: DVS sorption/desorption, dependent on relative environmental humidity; for Water uptake %: 25° C.
Description: The water uptake of succinate and fumarate salts of S,S-reboxetine was investigated by submitting a sample of such salts to a hygroscopicity test by means of a DVS 1000 (SMS) according to the principle of Dynamic Moisture Sorption Gravimetry (DMSG). The apparatus is a “controlled atmosphere microbalance” where the weighed sample is exposed to programmed variations of the relative humidity (RH) at a constant and controlled temperature. The measured parameters (weight, time and RH), reported in Excel worksheets, allowed obtaining hygroscopicity curves over the tested RH range. Multiple sorption/desorption cycles between 0% and 90% RH were performed at 25° C. Progressive variations of RH were of 10%; they were operated by the software at the equilibration of the sample weight. This condition was defined at a constant rate of percent weight variation 0.005%/min (average of 5 minutes survey). The experimental results were reported in the DVS Isotherm Reports and Isotherm Plots.
The obtained results are summarized in the Table V, reporting the water uptake expressed as percent change in mass, and FIG. 4.

[2] = DSC analyses on samples recovered after DVS tests; conditions: for DSC profile after equilibration at high humidity (DVS test method): maximum relative humidity of 90% at 25° C., equilibration up to 0.005%/min or no more than 360 minutes; for Modification of solid structure after DVS test (observed by DSC): tested sample after DVS sorption/desorption
Description: DSC analyses were carried out with a Perkin-Elmer DSC-7 apparatus. Aluminium DSC pans were loaded with about of 2 mg of sample. The temperature range of analysis was between 30° and 210° C. The samples were analyzed under nitrogen flow (to eliminate oxidative and pyrrolitic effects) at a heating rate of 10° C./min.
DSC analyses were executed as reported above also on the samples recovered after DVS tests, executed according to the DMSG principle. As shown below in FIG. 5, DSC profiles of SS-reboxetine succinate and fumarate salts were unchanged after equilibration at high humidity according to the DVS test method (maximum relative humidity of 90% at 25° C. and equilibration up to 0.005%/min or no more than 360 minutes).

[3] = Thermogravimetric Analysis (TGA), volatile content
Description: The volatile content measured by means of Thermogravimetric Analysis (TGA) was relevant: in fact, a weight loss of about 2% was detected upon heating showing a related thermal feature. Whereas for SS-reboxetine fumarate and succinate salts a negligible […] weight loss was measured.

[4] = listed as S,S-reboxetine mesylate

CCOc1ccccc1O[C@@H](c1ccccc1)[C@@H]1CNCCO1.O=C(O)/C=C/C(=O)O (single isomer, unassigned) [Fumarate salt, Reboxetine S,S Enantiomer Fumarate Salt]
Effects of moisture update: reversibility / retention of water uptake ([1]; Fumarate Salt): Reversible water | Effects of moisture update: reversibility / retention of water uptake ([1]; listed as fumarate salt, Fumarate Salt): reversible | Water uptake % ([1]; Relative Humidity 20%): 0.06% | Water uptake % ([1]; Relative Humidity 35%): 0.11% | Water uptake % ([1]; Relative Humidity 50%): 0.16% | Water uptake % ([1]; Relative Humidity 65%): 0.21% | Water uptake % ([1]; Relative Humidity 80%): 0.31% | Water uptake % ([1]; Relative Humidity 90%): 0.47% | DSC profile after equilibration at high humidity (DVS test method) [2]: unchanged | Weight loss upon heating (TGA), in words [3]: negligible

CCOc1ccccc1O[C@@H](c1ccccc1)[C@@H]1CNCCO1.O=C(O)CCC(=O)O (single isomer, unassigned) [Succinate salt, Reboxetine S,S Enantiomer Succinate Salt]
Effects of moisture update: reversibility / retention of water uptake ([1]; Succinate Salt): Reversible water | Effects of moisture update: reversibility / retention of water uptake ([1]; listed as succinate salt, Succinate Salt): reversible | Water uptake % ([1]; Relative Humidity 20%): 0.03% | Water uptake % ([1]; Relative Humidity 35%): 0.06% | Water uptake % ([1]; Relative Humidity 50%): 0.10% | Water uptake % ([1]; Relative Humidity 65%): 0.14% | Water uptake % ([1]; Relative Humidity 80%): 0.21% | Water uptake % ([1]; Relative Humidity 90%): 0.29% | DSC profile after equilibration at high humidity (DVS test method) [2]: unchanged | Weight loss upon heating (TGA), in words [3]: negligible

CCOc1ccccc1O[C@H](c1ccccc1)[C@H]1CNCCO1.CS(=O)(=O)O [Mesylate salt, S,S-reboxetine mesylate]
Effects of moisture update: reversibility / retention of water uptake [1]: Retention of water | Effects of moisture update: reversibility / retention of water uptake [1, 4]: only partially eliminated | Water uptake retained after re-equilibration ([1]; DVS, after re-equilibration): about 4% | Amount of water adsorbed (uptake) in hygroscopicity test ([1]; DVS, at 90% RH printed for mesylate salt): up to 9% | Desorption Cycle Water content % (percent change in mass) ([1]; Relative Humidity 0%): 4.3% | Sorption Cycle Water content % (percent change in mass) ([1]; Relative Humidity 0%): 0.0% | Desorption Cycle Water content % (percent change in mass) ([1]; Relative Humidity 20%): 4.5% | Sorption Cycle Water content % (percent change in mass) ([1]; Relative Humidity 20%): 0.5% | Desorption Cycle Water content % (percent change in mass) ([1]; Relative Humidity 35%): 4.6% | Sorption Cycle Water content % (percent change in mass) ([1]; Relative Humidity 35%): 0.6% | Desorption Cycle Water content % (percent change in mass) ([1]; Relative Humidity 50%): 4.6% | Sorption Cycle Water content % (percent change in mass) ([1]; Relative Humidity 50%): 0.7% | Desorption Cycle Water content % (percent change in mass) ([1]; Relative Humidity 65%): 4.6% | Sorption Cycle Water content % (percent change in mass) ([1]; Relative Humidity 65%): 0.9% | Desorption Cycle Water content % (percent change in mass) ([1]; Relative Humidity 80%): 4.7% | Sorption Cycle Water content % (percent change in mass) ([1]; Relative Humidity 80%): 4.5% | Desorption Cycle Water content % (percent change in mass) ([1]; Relative Humidity 90%): 8.7% | Sorption Cycle Water content % (percent change in mass) ([1]; Relative Humidity 90%): 8.7% | Effects of moisture update: change in crystalline form ([1]; after water uptake in DVS test): Irreversible change | DSC profile after equilibration at high humidity (DVS test method) [2]: complete destructuration | Modification of solid structure after DVS test (observed by DSC) [2, 4]: solid state modification was observed | Modification of solid structure after DVS test (observed by DSC) ([2]; listed as mesylate salt): loss of crystallinity | Weight loss upon heating (volatile content, TGA) [3]: about 2%
